Laboratory results taken from publication PMC7096397, “Improving the drug-likeness of inspiring natural products - evaluation of the antiparasitic activity against Trypanosoma cruzi through semi-synthetic and simplified analogues of licarin A” (Scientific Reports, 2020).
Read-outs that look alike come from different tables or passages of the source.

Legend:
[1] = tested on: T. cruzi (Y strain) trypomastigotes; experiment: Anti-trypomastigote assay (resazurin viability); format: cell-based, Trypanosoma cruzi; conditions: for IC50: read-out: IC50 trypo
Procedure: (§1) The cells and parasites were kept at 37 °C in a humidified atmosphere containing 5% CO2.
Benznidazole was used as the standard drug. The optical density was determined in FilterMax F5 (Molecular Devices) at 570 nm[38].
(§2) IC50 and CC50 values were calculated using a sigmoid dose-response curves in Graph–Pad Prism 5.0 software (GraphPad Software - San Diego, CA, USA). For the mechanism of action studies one-way ANOVA (Turkey’s Multiple Comparison test) was used for significance (p < 0.05). The assays were repeated at least twice and the samples were tested in duplicate.

PAMPA-BBB model = format: in vitro ADME
Procedure: The methodology herein applied was similar to that described in the previous section, however with the purpose of assessing the permeability of the compounds through the blood brain barrier (BBB). Thus, stock solutions (10 mM) of each test compound were prepared in DMSO and diluted with phosphate buffered saline (PBS) at pH 7.4. The final concentration of donor solutions was 300 μM and DMSO of 5%. Artificial membrane lipid solutions were prepared daily by dissolving, in n-dodecane, the porcine brain lipid extracted as described[40] at the final concentration of 2% (m/v). PAMPA procedure was similar to that described in the previous section although, in PAMPA-BBB, the donor and acceptor solutions were prepared using phosphate buffer saline (PBS) at pH 7.4 and the Papp was obtained through the equation previously reported.

[2] = tested on: T. cruzi intracellular amastigotes; experiment: Anti-amastigote assay in infected peritoneal macrophages (infection index); format: cell-based, Trypanosoma cruzi; conditions: 48 h, read-out: IC50 Ama
Procedure: as §1
The cells were plated on a 16-well chamber slide – NUNC (Thermo Fisher Scientific) at 1 × 10^5 cells/well and incubated for 24 h at 37 °C in a 5% CO2 humidified incubator. […] Tested compounds were subsequently incubated with infected macrophages for 48 h at 37 °C (5% CO2 humidified incubator) in different nontoxic concentrations. Benznidazole was used as standard drug. At the end of the assay, slides were fixed with MeOH and stained with Giemsa, counted under a light microscope (EVOS M5000, Thermo, USA) and IC50 values were determined by the infection index.
as §2

[3] = Cytotoxicity against mammalian cells (MTT); format: cell-based, Murine; conditions: mouse, NCTC clone L929 cells
Procedure: Rhesus monkey kidney cells (LLC-MK2-ATCC CCL 7) were used for the maintenance of trypomastigotes of T. cruzi (Y strain) using RPMI-1640 medium supplemented with 2% fetal bovine serum (FBS). The cells and parasites were kept at 37 °C in a humidified atmosphere containing 5% CO2. Peritoneal macrophages, used in the experiments of anti-amastigote assay, were obtained by washing the peritoneal cavity of BALB/c mice, with RPMI-1640 medium supplemented with 10% FBS and kept at 37 °C in a 5% CO2 humidified incubator. Murine conjunctive cells (NCTC clone 929, ATCC) and LLC-MK2 were kept in RPMI-1640 supplemented with 10% FBS at the same conditions described above.
NCTC cells-clone L929 (6 × 10^4 cells/well) were seeded and incubated with tested compounds (200–1.56 µM) for 48 h at 37 °C in a 5% CO2 humidified incubator. Cytotoxic concentration (CC50) was determined by MTT assay. Optical density was determined in FilterMax F5 (Molecular Devices) at 570 nm. Selectivity Index (SI) was determined using the following ratio: CC50 against NCTC cells/IC50 against parasites.
as §2

[4] = PAMPA intestinal model (GIT); format: in vitro ADME
Procedure: Intestinal permeability of tested compounds was estimated applying the PAMPA model previously developed and validated. Briefly, stock solutions were prepared in dimethyl sulfoxide (DMSO) at the concentrations of 10 mM and then diluted with Tris buffer to give the final concentration donor solution at 300 µM and 5% DMSO. The assay procedure was initiated by filling each well of the microtiter plate (MultiScreen, catalogue no. MATRNPS50, Millipore Corporation, Bedford, MA, USA) with 300 μL of each donor drug solution. Carefully, and avoiding the pipette tip contact with the filter, the hydrophobic filter (0.45 μm) of each acceptor well of the 96-well microfilter plate (MultiScreen-IP, catalogue no. MAIPNTR10, Millipore Corporation, Bedford, MA, USA) was adsorbed with 6 μL of the artificial lipid solution which was composed of 2% of L-α-phosphatidylcholine from soybean dissolved, by sonication, in n-dodecane. Immediately after this application, 150 μL of Tris buffer containing 5% DMSO was added to the receiving well. The receiving well was mounted on the donor plate, keeping the underside of the membrane in contact with the donor solution. The assembled donor–acceptor plates were incubated under constant stirring (3 g) at 25 °C for approximately 16 h. Subsequently, the quantity of each compound presented at the receptor solution (150 μL) was determined by UV/VIS spectrophotometrically.

T. cruzi trypomastigotes [5] = experiment: Mitochondrial membrane potential, JC-1 flow cytometry; format: cell-based, Trypanosoma cruzi; conditions: at IC50, 2 h
Procedure: The ΔΨm were analyzed by flow cytometry (Attune NxT flow cytometer - ThermoFisher) with the probe 5,5′,6,6′-tetrachloro-1,1′,3,3′-tetraethylbenzimidazole carbocyanide iodide (JC-1, ThermoFisher). The ratio between red/green fluorescence intensities (BL-2/BL-1; 590 nm/530 nm) were calculated[45],[46]. […] The parasites were incubated in the dark for 10 min at 37 °C and washed in HBSS + Glu to eliminate the non-internalized dye. As internal controls of the assay were used: (i) non-treated cells and (ii) trypomastigotes treated with 100 μM CCCP.

T. cruzi trypomastigotes [6] = experiment: Reactive oxygen species (ROS) generation, H2DCFDA probe; format: cell-based, Trypanosoma cruzi; conditions: at IC50, 1 h of treatment
Procedure: After, H2DCFDA probe (Molecular Probes) was added (5 µM) and incubated by 15 min[44]. The fluorescence intensity was measure using a fluorimetric microplate reader (FilterMax F5 Multi-Mode, Molecular Devices) with excitation and emission wavelengths of 485 and 520 nm, respectively. Azide (10 mM) was used as positive control and untreated parasites were used as negative control.

[7] = Trypanosoma cruzi, T. cruzi trypomastigotes, 24 h incubation, resazurin
[8] = Trypanosoma cruzi, Peritoneal macrophage, in Mus musculus, intracellular amastigotes in BALB/c peritoneal macrophages
[9] = PAMPA-BBB model, 300 µM donor, PBS pH 7.4, read-out: Papp BBB
[10] = PAMPA intestinal model, 300 µM donor, Tris buffer, 25 °C, 16 h, read-out: Papp GIT

Row | Compound | IC50 [1, 7] | Papp at 16 h, 300 µM (PAMPA-BBB model; PAMPA, pH 7.4) | IC50 [2, 8] | Papp at 16 h, 300 µM ([4]; PAMPA) | CC50 at 48 h [3] | also measured
1 | C/C=C/c1cc(OC)c2c(c1)[C@H](C)[C@@H](c1ccc(OC)c(OC)c1)O2 [1a, (2S,3 S)-2-(3,4-dimethoxyphenyl)-7-methoxy-3-methyl-5-[(E)-prop-1-enyl]-2,3-dihydrobenzo-furan] | 28 ± 10.2 µM | 4.26 ×10⁻⁶ cm/s | > 100 µM | 0.42 ×10⁻⁶ cm/s | > 200 µM | –
2 | C/C=C/c1cc(OC)c2c(c1)[C@H](C)[C@@H](c1ccc(OC(C)=O)c(OC)c1)O2 [1b, [2-methoxy-4-[(2S,3 S)-7-methoxy-3-methyl-5-[(E)-prop-1-enyl]-2,3-dihydrobenzofuran-2-yl]phenyl] acetate] | 17.9 ± 2.9 µM | 0.34 ×10⁻⁶ cm/s | > 100 µM | 1.02 ×10⁻⁶ cm/s | 67.2 ± 24.6 µM | –
3 | C=CCOc1ccc([C@H]2Oc3c(OC)cc(/C=C/C)cc3[C@@H]2C)cc1OC [1c, (2S,3 S)-2-(4-allyloxy-3-methoxy-phenyl)-7-methoxy-3-methyl-5-[(E)-prop-1-enyl]-2,3-dihydrobenzofuran] | > 100 µM | 0.24 ×10⁻⁶ cm/s | > 100 µM | 0.43 ×10⁻⁶ cm/s | > 200 µM | –
4 | COc1cc(C=O)ccc1OC(C)=O [2b, (4-formyl-2-methoxy-phenyl) acetate] | > 100 µM | 4.7 ×10⁻⁶ cm/s | 5.6 ± 0.3 µM | 17.4 ×10⁻⁶ cm/s | > 200 µM | fraction unbound at 16 h, 300 µM [4]: < 0.1
5 | C=CCOc1ccc(C=O)cc1OC [2c, 4-allyloxy-3-methoxy-benzaldehyde] | > 100 µM | 5.35 ×10⁻⁶ cm/s | > 100 µM | 1.6 ×10⁻⁶ cm/s | > 200 µM | –
6 | C=CCc1cc(C=O)cc(OC)c1O [2d, 3-allyl-4-hydroxy-5-methoxy-benzaldehyde] | > 100 µM | 1.25 ×10⁻⁶ cm/s | > 100 µM | 1.57 ×10⁻⁶ cm/s | > 200 µM | –
7 | COc1ccc(CO)cc1OC [3a, (3,4-dimethoxyphenyl)methanol] | > 100 µM | – | > 100 µM | – | > 200 µM | Papp at 16 h, 300 µM (PAMPA-BBB model; [9]): 2.18 ×10⁻⁶ cm/s; Papp at 16 h, 300 µM [4, 10]: 2.22 ×10⁻⁶ cm/s
8 | C=CCOc1ccc(CO)cc1OC [3c, (4-allyloxy-3-methoxy-phenyl)methanol] | > 100 µM | 4.74 ×10⁻⁶ cm/s | > 100 µM | 1.9 ×10⁻⁶ cm/s | > 200 µM | –
9 | C=CCc1cc(CO)cc(OC)c1O [3d, 2-allyl-4-(hydroxymethyl)-6-methoxy-phenol] | > 100 µM | 3.47 ×10⁻⁶ cm/s | > 100 µM | 3.47 ×10⁻⁶ cm/s | > 200 µM | mitochondrial membrane potential (T. cruzi trypomastigotes [5]): induced hyperpolarization of mitochondrial membrane potential; ROS generation (T. cruzi trypomastigotes [6]): increased the reactive oxygen species (ROS) levels
10 | C=CCc1ccc(OC)c(OC)c1 [5a, 4-allyl-1,2-dimethoxy-benzene] | – | – | – | – | > 200 µM | IC50 ([1]; Trypanosoma cruzi, 24 h): > 100 µM; Papp at 16 h, 300 µM (PAMPA-BBB model; [9]): 1.56 ×10⁻⁶ cm/s; IC50 ([2]; Trypanosoma cruzi, Peritoneal macrophage, in Mus musculus): > 100 µM; Papp at 16 h, 300 µM [4, 10]: 2.35 ×10⁻⁶ cm/s
11 | O=C(Cn1ccnc1[N+](=O)[O-])NCc1ccccc1 [Bnz, benznidazole, reference compound] | 5.5 ± 0.9 µM | – | 18.7 ± 2.6 µM | – | > 200 µM | –
12 | C/C=C/c1cc(OC)c2c(c1)[C@H](C)[C@@H](c1ccc(O)c(OC)c1)O2 [compound 1, Licarin A] | 54.3 ± 8.9 µM | 2.37 ×10⁻⁶ cm/s | > 100 µM | 0.85 ×10⁻⁶ cm/s | > 200 µM | –
13 | COc1cc(C=O)ccc1O [compound 2, vanillin] | > 100 µM | – | 5.5 ± 0.6 µM | – | > 200 µM | Papp at 16 h, 300 µM (PAMPA-BBB model; [9]): 6.15 ×10⁻⁶ cm/s; Papp at 16 h, 300 µM [4, 10]: 1.41 ×10⁻⁶ cm/s
14 | COc1cc(CO)ccc1O [compound 3, vanillyl alcohol] | > 100 µM | 0.64 ×10⁻⁶ cm/s | > 100 µM | 0.18 ×10⁻⁶ cm/s | > 200 µM | –
15 | isoeugenol [compound 4] | – | – | – | – | – | IC50 ([1]; T. cruzi trypomastigotes, 24 h incubation, resazurin): 50.7 ± 17.4 µM; IC50 ([2]; intracellular amastigotes in BALB/c peritoneal macrophages): > 100 µM

The next lines start with results.

Row | IC50 [1, 7] | Papp at 16 h, 300 µM (PAMPA-BBB model; PAMPA, pH 7.4) | IC50 [2, 8] | Papp at 16 h, 300 µM ([4]; PAMPA) | Compound | CC50 at 48 h [3] | also measured
16 | 54.6 ± 10.2 µM | 1.32 ×10⁻⁶ cm/s | > 100 µM | 15 ×10⁻⁶ cm/s | C/C=C/c1ccc(OC(C)=O)c(OC)c1 [4b, [2-methoxy-4-[(E)-prop-1-enyl]phenyl] acetate] | > 200 µM | fraction unbound at 16 h, 300 µM [4]: < 0.1
17 | > 100 µM | 0.2 ×10⁻⁶ cm/s | > 100 µM | 0.13 ×10⁻⁶ cm/s | C=CCOc1ccc(/C=C/C)cc1OC [4c, 1-allyloxy-2-methoxy-4-[(E)-prop-1-enyl]benzene] | > 200 µM | anti-T. cruzi activity (in words) ([1]; Table 1 assays): did not display activity
18 | 21.2 ± 3.7 µM | 0.74 ×10⁻⁶ cm/s | 10.4 ± 0.9 µM | 1.2 ×10⁻⁶ cm/s | C=CCc1cc(/C=C/C)cc(OC)c1O [4d, 2-allyl-6-methoxy-4-[(E)-prop-1-enyl]phenol] | > 200 µM | –
19 | > 100 µM | 2.28 ×10⁻⁶ cm/s | > 100 µM | 2.81 ×10⁻⁶ cm/s | C=CCc1ccc(OC(C)=O)c(OC)c1 [5b, (4-allyl-2-methoxy-phenyl) acetate] | > 200 µM | –
20 | > 100 µM | 0.32 ×10⁻⁶ cm/s | > 100 µM | 1.21 ×10⁻⁶ cm/s | C=CCOc1ccc(CC=C)cc1OC [5c, 4-allyl-1-allyloxy-2-methoxy-benzene] | > 200 µM | –
21 | > 100 µM | 0.32 ×10⁻⁶ cm/s | > 100 µM | 0.65 ×10⁻⁶ cm/s | C=CCc1cc(CC=C)c(O)c(OC)c1 [5d, 2,4-diallyl-6-methoxy-phenol] | > 200 µM | –
